According to patent publication US20250152564A1, “PROPYLENE KETONE-CONTAINING BIOINHIBITOR, PREPARATION METHOD THEREFOR, AND USE THEREOF” (SHANGHAI HANSOH BIOMEDICAL CO., LTD., priority 2022, published 2025):

Assays:
FGFR2 = FGFR2 (Homo sapiens (Human), UniProt P21802); assay: TR-FRET kinase inhibition assay, FGFR2; assay type: biochemical; conditions: ATP Km concentration (30 μM)
Procedure, shortened: (§1)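 Kinase-domain fragments in 50 mM HEPES pH 7.5 with 10 mM MgCl2, ATP at Km plus peptide substrate; 60 min reaction at room temperature, then EDTA/Eu-anti-phosphotyrosine (PT66) detection for 60 min (30 min for V564F). 11-point 3-fold dilutions from 1000 nM; IC50 from four-parameter fit of 665/620 nm ratio inhibition.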

[1] = Pharmacokinetic experiment in SD rats after oral administration; assay type: in vivo; conditions: 5 mg/kg, plasma; for AUC(0-t) / AUC(0-inf) / half-life / MRT / Cmax: male, Sprague-Dawley (SD), rat, po; for AUC(0-t): read-out: Area under the curve AUC0-t; for AUC(0-inf): read-out: Area under the curve AUC0-∞; for half-life: read-out: Half-life t1/2 (converted); for MRT: read-out: Mean residence time MRT; for Cmax: read-out: Plasma concentration Cmax; for Time to peak tmax: p.o.
Procedure: To study the pharmacokinetic behavior of the compounds of the present invention in the rat body (plasma) after oral administration at a dose of 5 mg/kg using SD rats as test animals.
3 SD rats/group, male, from Shanghai Jiesijie Experimental Animal Co., Ltd., animal production license number (SCXK (Shanghai) 2013-0006 N0.311620400001794).
PO, 10% solutol HS15-0.5% CMC-Na was dissolved by ultrasound and prepared into a clear solution or homogeneous suspension.
3 SD rats/group, male; p.o. respectively at a dose of 5 mg/kg and an administration volume of 10 mL/kg after the […] were fasted overnight.
After oral administration to rats, at 0.25, 0.5, 1, 2, 4, 6, 8 and 24 hours, 0.2 mL of blood was collected from the jugular vein, placed in an EDTA-K2 test tube, centrifuged at 6000 rpm for 6 min at 4° C. to separate the plasma, which was stored at −80° C.
1) 100 μL of acetonitrile was added to 20 μL of plasma sample for pelleting, and it was mixed and centrifuged at 3500×g for 5-20 min.
2) The treated supernatant solution was taken and subjected to LC/MS/MS to analyze the concentrations of the test compounds. LC/MS/MS analysis instrument: AB Sciex API 4000 Qtrap.
• Liquid phase conditions: Shimadzu LC-20AD pump • Chromatographic column: Waters Xbridge C18 5 μm, 4.6×50 mm mobile phase: liquid A was 0.1% aqueous formic acid solution, and liquid B was methanol • Flow rate: 1.0 mL/min • Elution time: 0-4.0 min, the eluent was as follows: […]

FGFR1 = FGFR1 (Homo sapiens (Human), UniProt P11362); assay: TR-FRET kinase inhibition assay, FGFR1; assay type: biochemical; conditions: ATP Km concentration (30 μM)
Sequence of FGFR1 (P11362 478-767): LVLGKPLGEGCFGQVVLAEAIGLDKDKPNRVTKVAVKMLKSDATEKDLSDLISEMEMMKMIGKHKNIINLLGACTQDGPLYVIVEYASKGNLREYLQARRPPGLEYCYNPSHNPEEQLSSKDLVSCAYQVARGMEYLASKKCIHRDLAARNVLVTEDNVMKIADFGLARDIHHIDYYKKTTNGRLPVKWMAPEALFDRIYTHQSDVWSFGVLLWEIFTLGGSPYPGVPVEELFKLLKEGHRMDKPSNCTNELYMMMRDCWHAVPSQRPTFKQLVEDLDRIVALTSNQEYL
Procedure: To measure the IC50 values of the compounds against FGFR1, FGFR2, FGFR3, FGFR4, and FGFR2 V564F at ATP Km concentrations by TR-FRET method.
TR-FRET (time-resolved fluorescence resonance energy transfer) method was used to detect the inhibitory activity of the compounds on FGFR1, FGFR2, FGFR3, FGFR4, and FGFR2 V564F kinase region fragments. The highest detection concentration of the compounds in 5 kinase experiments was 1000 nM, which was diluted in 3 folds, with a total of 11 concentrations (1000 nM to 0.017 nM). A kinase buffer (50 mM HEPES pH 7.5, 1 mM EGTA, 10 mM MgCl2, 2 mM DTT, and 0.01% Tween-20) was used to prepare 4× enzyme solution, 4× compound solutions diluted in gradient, and a 2×ATP/Peptide substrate solution. To a 384-well plate, 2.5 μL of enzyme solution and 2.5 μL of diluted […] compound solution were added, and 5 μL of 2×ATP/Peptide substrate solution was then added. After reacting at room temperature for 60 minutes for FGFR1, FGFR2, FGFR3, and FGFR2 V564F kinases, and 120 minutes for FGFR4 kinase, 10 μL of a 2× termination and detection mixed liquid prepared with 1×LANCE detection buffer with an EDTA concentration of 20 mM and a Europium-anti-phosphotyrosine (PT66) concentration of 2 nM was added to each well of the plate. After reacting at room temperature for 60 minutes for FGFR1, FGFR2, FGFR3, and FGFR4, and 30 minutes for FGFR2 V564F, the fluorescence signal value in each well of the plate was measured by a microplate reader.
(§2) 1) Inhibition rate (%): Calculation was performed on the raw data (665 nm/620 nm reading ratio) according to the following formula to obtain the inhibition rate. Inhibition rate %=[(mean value in positive control well−value in sample well)/(mean value in positive control well−mean value in negative control well)]×100, wherein the positive control well was a reaction well without a compound […], and the negative control well was a reaction wells without an enzyme.
(§3) 2) Curve fitting: Log(inhibitor) vs. response—Variable slope (four parameters) in GraphPad Prism 6 was used for fitting equation analysis of the compound concentration and the corresponding inhibition rate, and the curve was fitted to obtain the IC50 values of the compounds.

FGFR2 V564F = FGFR2 V564F (Homo sapiens (Human), UniProt P21802, V564F); assay: TR-FRET kinase inhibition assay, FGFR2 V564F; assay type: biochemical; conditions: ATP Km concentration (20 μM)
Sequence of FGFR2 V564F (P21802 481-770 V564F): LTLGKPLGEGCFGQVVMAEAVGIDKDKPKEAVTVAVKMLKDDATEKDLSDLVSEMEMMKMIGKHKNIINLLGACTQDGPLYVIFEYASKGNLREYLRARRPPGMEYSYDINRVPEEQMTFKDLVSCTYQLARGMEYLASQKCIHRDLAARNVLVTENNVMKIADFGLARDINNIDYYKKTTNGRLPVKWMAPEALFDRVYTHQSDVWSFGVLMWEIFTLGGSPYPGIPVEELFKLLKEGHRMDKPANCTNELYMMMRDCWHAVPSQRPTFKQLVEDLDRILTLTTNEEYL
Procedure, shortened: as §1

[2] = test system: BaF3 FGFR2-BICC1 V564F cells; assay: CellTiter-Glo cell proliferation inhibition, BaF3 FGFR2-BICC1 V564F; assay type: cell-based; conditions: Mus musculus, 72 h, read-out: BaF3 FGFR2-BICC1 V564F inhibitory activity IC50
Procedure, shortened: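 Cells plated, compound added next day as 9-point 3-fold series from 1000 nM to 0.15 nM, incubated 72 h. Viability by CellTiter-Glo luminescence; IC50 from four-parameter variable-slope fit of percent inhibition.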

NCI-H716 cells = assay: CellTiter-Glo cell proliferation inhibition, NCI-H716; assay type: cell-based; conditions: Homo sapiens, 72 h, read-out: NCI-H716 cell proliferation inhibition rate IC50
Procedure: To evaluate inhibitory effects of the compounds on the proliferation of NCI-H716, SNU-16 and BaF3-FGFR2-BICC1 V564F cells by cell proliferation inhibition experiments.
CellTiter-Glo method was used to detect inhibitory effects of the compounds on the proliferation of NCI-H716, SNU-16 and BaF3 FGFR2-BICC1 V564F cells. The highest detection concentration of the compounds was 1000 nM, which was diluted in 3 folds, with a total of 9 concentrations (1000 nM to 0.15 nM). After the cells were plated at an appropriate density, compounds were added the next day and incubated for 72 h before detection using the […] detection kit.
as §2, with “(%):” for “(%): Calculation was performed on the raw data (665 nm/620 nm reading ratio) according to the following formula to obtain the inhibition rate.”
as §3

Sequence of FGFR2 (P21802 481-770): as the sequence (P21802 481-770 V564F) above, with F84V counted along it

Structure (SMILES)	IC50 (FGFR2)	AUC(0-t) [1]	AUC(0-inf) [1]	half-life [1]	MRT [1]	Cmax [1]	Time to peak tmax [1]	IC50 (FGFR1)	IC50 (FGFR2 V564F)	IC50 [2]	IC50 (NCI-H716 cells)
C=CC(=O)N1CC[C@H](n2nc(C#Cc3cc4ncn(CC)c4cc3F)c3c(N)ncc(C(C)=O)c32)C1 [Example 24, (S)-1-(3-(7-acetyl-4-amino-3-((1-ethyl-6-fluoro-1H-benzo[d]imidazol-5-yl)ethynyl)-1H-pyrazolo[4,3-c]pyridin-1-yl)pyrrolidin-1-yl)prop-2-en-1-one]	0.7 nM	–	–	–	–	–	–	3.6 nM	0.4 nM	0.8 nM	2.09 nM
C=CC(=O)N1CC[C@H](n2nc(C#Cc3ccc4csnc4c3)c3c(N)ncc(C(=O)C4CC4)c32)C1 [Example 91, (S)-1-(3-(4-amino-3-(benzo[c]isothiazole-6-ethynylene)-7-(cyclopropanecarbonyl)-1H-pyrazolo[4,3-c]pyridin-1-yl)pyrrolidine-1-methyl)prop-2-en-1-one]	1 nM	–	–	–	–	–	–	3.9 nM	1.1 nM	0.8 nM	0.97 nM
C=CC(=O)N1CC[C@H](n2nc(C#Cc3ccc4c(c3)ncn4C)c3c(N)ncc(C(=O)C4CC4)c32)C1 [Example 65, (S)-1-(3-(4-amino-7-(cyclopropanecarbonyl)-3-((1-methyl-1H-benzo[d]imidazol-5-yl)ethynyl)-1H-pyrazolo[4,3-c]pyridin-1-yl)pyrrolidin-1-yl)prop-2-en-1-one]	0.7 nM	–	–	–	–	–	–	2.8 nM	0.5 nM	1.4 nM	1.5 nM
C=CC(=O)N1CC[C@H](n2nc(C#Cc3cc4ncn(C5CC5)c4cc3F)c3c(N)ncc(C(=O)C4CC4)c32)C1 [Example 49, (S)-1-(3-(4-amino-7-(cyclopropanecarbonyl)-3-((1-cyclopropyl-6-fluoro-1H-benzo[d]imidazol-5-yl)ethynyl)-1H-pyrazolo[4,3-c]pyridin-1-yl)pyrrolidin-1-yl)prop-2-en-1-one]	1.3 nM	–	–	–	–	–	–	3.9 nM	1 nM	0.4 nM	1.92 nM
C=CC(=O)N1CC[C@H](n2nc(C#Cc3cc4ncn(C5CC5)c4cc3F)c3c(N)ncc(C(C)=O)c32)C1 [Example 7, (S)-1-(3-(7-acetyl-4-amino-3-((1-cyclopropyl-6-fluoro-1H-benzo[d]imidazol-5-yl)ethynyl)-1H-pyrazolo[4,3-c]pyridin-1-yl)pyrrolidin-1-yl)prop-2-en-1-one]	1 nM	–	–	–	–	–	–	1.3 nM	0.3 nM	0.9 nM	1.26 nM

More lines, in order of falling IC50 (FGFR2), values ahead:

IC50 (FGFR2)	AUC(0-t) [1]	AUC(0-inf) [1]	half-life [1]	MRT [1]	Cmax [1]	Time to peak tmax [1]	IC50 (FGFR1)	IC50 (FGFR2 V564F)	IC50 [2]	IC50 (NCI-H716 cells)	Structure (SMILES)
1.6 nM	2230 ng·h/mL	2270 ng·h/mL	1.1 h	2.99 h	604 ng/mL	2 h	2.8 nM	1 nM	1.9 nM	0.91 nM	C=CC(=O)N1CC[C@H](n2nc(C#Cc3ccc4c(c3)ncn4C3CC3)c3c(N)ncc(C(=O)C4CC4)c32)C1 [Example 38, (S)-1-(3-(4-amino-7-(cyclopropanecarbonyl)-3-((1-cyclopropyl-1H-benzo[d]imidazol-5-yl)ethynyl)-1H-pyrazolo[4,3-c]pyridin-1-yl)pyrrolidin-1-yl)prop-2-en-1-one]
1.4 nM	–	–	–	–	–	–	2.4 nM	0.3 nM	0.5 nM	1.42 nM	C=CC(=O)N1CC[C@H](n2nc(C#Cc3cc4ncn(C)c4cc3Cl)c3c(N)ncc(C(=O)C4CC4)c32)C1 [Example 68, (S)-1-(3-(4-amino-3-((6-chloro-1-methyl-1H-benzo[d]imidazol-5-yl)ethynyl)-7-(cyclopropanecarbonyl)-1H-pyrazolo[4,3-c]pyridin-1-yl)pyrrolidin-1-yl)prop-2-en-1-one]
0.9 nM	–	–	–	–	–	–	4.7 nM	0.4 nM	1.7 nM	2.19 nM	C=CC(=O)N1CC[C@H](n2nc(C#Cc3cc4ncn(CC)c4cc3F)c3c(N)ncc(C(=O)CC)c32)C1 [Example 60, (S)-1-(3-(4-amino-3-((1-ethyl-6-fluoro-1H-benzo[d]imidazol-5-yl)ethynyl)-7-propionyl-1H-pyrazolo[4,3-c]pyridin-1-yl)pyrrolidin-1-yl)prop-2-en-1-one]
0.7 nM	–	–	–	–	–	–	4.5 nM	0.4 nM	1.1 nM	1.2 nM	C=CC(=O)N1CC[C@H](n2nc(C#Cc3ccn4ccnc4c3)c3c(N)ncc(C(=O)C4CC4)c32)C1 [Example 79, (S)-1-(3-(4-amino-7-(cyclopropanecarbonyl)-3-(imidazo[1,2-a]pyridine-7-ethynylene)-1H-pyrazolo[4,3-c]pyridin-1-yl)pyrrolidine-1-methyl)prop-2-en-1-one]
0.5 nM	2240 ng·h/mL	2240 ng·h/mL	0.5 h	2.38 h	534 ng/mL	2 h	1.6 nM	0.6 nM	0.3 nM	1.31 nM	C=CC(=O)N1CC[C@H](n2nc(C#Cc3ccc4cn(C5CC5)nc4c3)c3c(N)ncc(C(C)=O)c32)C1 [Example 87, (S)-1-(3-(7-acetyl-4-amino-3-((2-cyclopropyl-2H-indazol-6-yl)ethynyl)-1H-pyrazolo[4,3-c]pyridin-1-yl)pyrrolidine-1-methyl)prop-2-en-1-one]
0.5 nM	–	–	–	–	–	–	1 nM	0.3 nM	0.1 nM	1.04 nM	C=CC(=O)N1CC[C@H](n2nc(C#Cc3ccc4cn(C)nc4c3)c3c(N)ncc(C(=O)C4CC4)c32)C1 [Example 84, (S)-1-(3-(4-amino-7-(cyclopropanecarbonyl)-3-((2-methyl-2H-indazol-6-yl)ethynyl)-1H-pyrazolo[4,3-c]pyridin-1-yl)pyrrolidin-1-yl)prop-2-en-1-one]
